Broadly, the inhibition is the drop in the measured response relative to a control, in per cent.

The text below walks through data of publication PMC10572743 (International Journal of Molecular Sciences, 2023).

In series [1] the test system is TNF-α production in PBMC stimulated with LPS. The settings on record: previous research; read-out: PMBC-LPS/TNFα; cited from earlier work.
In the next series the target is BChE (Equus caballus, UniProt P81908). The experiment in a line: biochemical. It counts as biochemical.
The test system of series [2] is TNF-α production in PBMC stimulated with LPS. Kind of series: Inhibition of TNF-α production in PBMCs stimulated with LPS (ELISA). It counts as cell-based. The settings on record: Homo sapiens, average of 2 independent experiments (donors), LPS 1 ng/mL, 24 h, read-out: IC50/μM (av.) PMBC-LPS/TNF-α. Here is the method: PBMC isolation. Human peripheral blood mononuclear cells (PBMCs) were isolated from buffy coats obtained from healthy adult volunteers. The buffy coats were diluted with sterile PBS and layered over Lymphoprep (Axis-Shield Diagnostics, Dundee, UK). Tubes were centrifuged for 35 min at 400× g (RT; acceleration and break turned off). After centrifugation, the mononuclear ring was collected, transferred into a new 50 mL tube, and washed thrice with sterile PBS. The remaining erythrocytes were lysed with an isotonic solution of ammonium chloride (150 mM; Kemika, Zagreb, Croatia).
Treatment and stimulation of human PBMCs. Immediately after isolation, 200,000 PBMCs were seeded per well of a 96-well plate. Compounds were dissolved in 100% dimethyl sulfoxide (DMSO, Sigma, Darmstadt, Germany), and serial dilutions in DMSO were prepared and added to cells, with starting concentration for test compounds 100 µM or 1 µM for reference dexamethasone. […] Plates were incubated for 24 h at 37 °C, 5% CO2, followed by the collection of supernatants for measurement of TNF-α and cell viability assessment.
Enzyme-linked immunosorbent assay (ELISA) and cytotoxicity analysis. TNFα concentration in PBMC supernatants was measured using ELISA assay, using antibodies obtained from BD Pharmingen (San Diego, CA, USA) and recombinant human TNFα protein (standard) from R&D Systems (Minneapolis, MN, USA). Lumitrac 600 384-well plates (Greiner Bio-One, Kremsmünster, Austria) were coated overnight with 1 µg/mL of TNFα capture antibody diluted in phosphate-buffered saline (PBS, Thermo Fisher Scientific, Waltham, MA, USA), followed by a washing step and blocking with 5% sucrose in assay diluent (1% bovine serum albumin (BSA; Sigma, Darmstadt, Germany) in PBS) for 4 h at RT. After the blocking step, the plates were washed, and samples/standards were added to the plates. After overnight incubation at 4 °C, detection antibodies diluted in assay diluent to a final concentration of 250 ng/mL were added. Following incubation for 2 h at RT, plates were washed, and streptavidin-HRP (Thermo Fisher Scientific, Waltham, MA, USA) solution was added (final concentration 500 ng/mL, prepared in assay diluent). Plates were incubated for 20 min at RT in the dark and washed, followed by adding Luminol substrate (Sigma, Darmstadt, Germany). […] To evaluate cell viability, Cell Titer Glo reagent was used (Promega, Madison, WI, USA) according to the manufacturer’s instructions.
Data analysis. For ELISA, the blank was subtracted from measured RLU values, and TNFα concentrations in samples were interpolated from the standard curve. QC parameters for each plate were calculated from raw data. […] For viability assessment, the average luminescence value was calculated from all trigger vehicle samples, and the percentage of vehicle value was calculated for all samples. The compound effect was considered cytotoxic if reduction from a vehicle was ≥20%, and these concentrations were excluded from further analysis. IC50 values of tested compounds were determined in GraphPad Prism 9 software using nonlinear regression curve fit (four parameters, with variable slope).
A general note: ELISA stands for enzyme-linked immunosorbent assay.

A further series concerns the target AChE (Electrophorus electricus, UniProt O42275). Kind of series: biochemical. It counts as biochemical. To be noted: for inhibition: at maximal concentration tested 350 μM.
In the next series the test system is PBMCs. Kind of series: Cell viability of PBMCs after incubation with compounds (ATP, Cell Titer Glo). The format is cell-based. Here is the method: The potential to act anti-inflammatory was evaluated for 1,2,3-triazole derivatives 1–31 in vitro in an assay where PBMCs from 2 healthy donors were stimulated with LPS to induce the immune response. As a measurement of response, the pro-inflammatory cytokine TNF-α was determined. […] […].
Treatment and stimulation of human PBMCs. Immediately after isolation, 200,000 PBMCs were seeded per well of a 96-well plate. Compounds were dissolved in 100% dimethyl sulfoxide (DMSO, Sigma, Darmstadt, Germany), and serial dilutions in DMSO were prepared and added to cells, with starting concentration for test compounds 100 µM or 1 µM for reference dexamethasone. After pre-incubation for 1h with the compounds, lipopolysaccharide (LPS) from E. coli 0111:B4 (Sigma, Darmstadt, Germany) was added to cells at 1 ng/mL final concentration. Plates were incubated for 24 h at 37 °C, 5% CO2, followed by the collection of supernatants for measurement of TNF-α and cell viability assessment.
Enzyme-linked immunosorbent assay (ELISA) and cytotoxicity analysis. TNFα concentration in PBMC supernatants was measured using ELISA assay, using antibodies obtained from BD Pharmingen (San Diego, CA, USA) and recombinant human TNFα protein (standard) from R&D Systems (Minneapolis, MN, USA). Lumitrac 600 384-well plates (Greiner Bio-One, Kremsmünster, Austria) were coated overnight with 1 µg/mL of TNFα capture antibody diluted in phosphate-buffered saline (PBS, Thermo Fisher Scientific, Waltham, MA, USA), followed by a washing step and blocking with 5% sucrose in assay diluent (1% bovine serum albumin (BSA; Sigma, Darmstadt, Germany) in PBS) for 4 h at RT. After the blocking step, the plates were washed, and samples/standards were added to the plates. […]. Following incubation for 2 h at RT, plates were washed, and streptavidin-HRP (Thermo Fisher Scientific, Waltham, MA, USA) solution was added (final concentration 500 ng/mL, prepared in assay diluent). Plates were incubated for 20 min at RT in the dark and washed, followed by adding Luminol substrate (Sigma, Darmstadt, Germany). Luminescence was measured using EnVision 2104 Multilabel Plate Reader (PerkinElmer, MA, USA), with an exposition time of 0.1 s. […]
Data analysis. For ELISA, the blank was subtracted from measured RLU values, and TNFα concentrations in samples were interpolated from the standard curve. QC parameters for each plate were calculated from raw data. […] For viability assessment, the average luminescence value was calculated from all trigger vehicle samples, and the percentage of vehicle value was calculated for all samples. […] IC50 values of tested compounds were determined in GraphPad Prism 9 software using nonlinear regression curve fit (four parameters, with variable slope).
(In general: ATP-based viability assays read luminescence as a measure of living cells.)

Setting [3] is: PBMC, ATP levels, highest tested concentration.

Like-named read-outs stand apart in the source and are kept apart here. Marks after values point to notes of the source that are not given here.

Chain of AChE (O42275 24-633): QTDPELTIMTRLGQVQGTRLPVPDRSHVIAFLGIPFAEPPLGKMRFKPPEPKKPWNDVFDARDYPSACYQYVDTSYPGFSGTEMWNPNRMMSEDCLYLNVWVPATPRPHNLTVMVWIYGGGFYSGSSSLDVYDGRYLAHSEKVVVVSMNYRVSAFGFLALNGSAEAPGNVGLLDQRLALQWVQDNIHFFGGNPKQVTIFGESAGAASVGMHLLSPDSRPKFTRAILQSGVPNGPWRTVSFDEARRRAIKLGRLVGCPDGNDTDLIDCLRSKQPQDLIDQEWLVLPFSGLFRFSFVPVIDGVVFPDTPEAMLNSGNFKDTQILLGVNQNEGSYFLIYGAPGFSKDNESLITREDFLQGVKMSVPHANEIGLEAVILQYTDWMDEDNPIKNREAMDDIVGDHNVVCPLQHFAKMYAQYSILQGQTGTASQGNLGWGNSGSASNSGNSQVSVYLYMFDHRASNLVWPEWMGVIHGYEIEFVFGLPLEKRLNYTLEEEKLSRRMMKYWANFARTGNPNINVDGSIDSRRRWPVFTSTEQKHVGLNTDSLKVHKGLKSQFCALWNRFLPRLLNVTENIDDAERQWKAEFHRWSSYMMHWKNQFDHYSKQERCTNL
Chain of BChE (P81908 whole entry): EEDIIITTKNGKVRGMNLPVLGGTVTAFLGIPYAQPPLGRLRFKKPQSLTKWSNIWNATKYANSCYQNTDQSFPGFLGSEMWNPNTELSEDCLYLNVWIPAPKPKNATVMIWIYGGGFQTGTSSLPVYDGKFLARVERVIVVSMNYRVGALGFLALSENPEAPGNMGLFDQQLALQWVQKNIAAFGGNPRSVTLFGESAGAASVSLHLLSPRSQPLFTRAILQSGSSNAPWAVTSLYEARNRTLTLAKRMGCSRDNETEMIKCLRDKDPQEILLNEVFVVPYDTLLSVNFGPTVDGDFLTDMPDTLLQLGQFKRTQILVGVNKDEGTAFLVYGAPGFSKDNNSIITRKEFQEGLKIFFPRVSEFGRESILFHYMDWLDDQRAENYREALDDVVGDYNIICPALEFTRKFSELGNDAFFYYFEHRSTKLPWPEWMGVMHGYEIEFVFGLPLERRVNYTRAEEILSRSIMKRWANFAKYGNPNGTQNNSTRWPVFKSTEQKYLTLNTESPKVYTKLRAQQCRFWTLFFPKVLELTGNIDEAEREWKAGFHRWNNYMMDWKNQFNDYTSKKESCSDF

On to `C=CCn1nnc2ccc3sccc3c21` [A], for which the IC50 in series [1] is 27.7 µM.

For `COc1ccc2ccc3nnn(CCCCO)c3c2c1` [B], the IC50 in series [1] was 7.9 µM.

For `COc1ccc(Cn2nnc3ccc4ccc(OC)cc4c32)cc1` [C], the IC50 in series [1] was 2.2 µM.

For the compound `COc1ccc2ccc3nnn(Cc4cccs4)c3c2c1` [Compound 7, 8-methoxy-1-(thiophen-2-ylmethyl)-1H-naphtho[1,2-d][1–3]triazole], the values for the IC50 (at BChE; in series [2]; against AChE) were 294 µM, greater than 100 µM and 110 µM, respectively. In addition, the results for the inhibition at 500 µM on BChE (read-out: BChE % Inhibition) and at AChE (at maximal concentration tested 500 μM) were 60.9 ± 0.4% and 81.4 ± 0.8%, respectively.

On to `C=CCn1nnc2ccc3sc(C)cc3c21` [Compound 8, 1-allyl-7-methyl-1H-thieno[3′,2′:3,4]benzo[1,2-d][1–3]triazole], for which the results for the IC50 (against BChE; in series [2]) were 206 µM and greater than 100 µM, respectively. For the same compound, the inhibition at 350 µM at BChE (read-out: BChE % Inhibition) is 62.6 ± 0.2%. The inhibition against AChE amounted to 43.5 ± 2.1%.

Turning to `Cc1cc2c(ccc3nnn(Cc4ccc(F)cc4)c32)s1` [Compound 9, 1-(4-fluorobenzyl)-7-methyl-1H-thieno[3′,2′:3,4]benzo[1,2-d][1–3]triazole], the IC50 at BChE was 69.8 µM; in series [2] it was greater than 100 µM; against AChE, 83 µM. Also, the inhibition at 350 µM on BChE (read-out: BChE % Inhibition) is 76.1 ± 0.8%. For the same compound, on AChE, the inhibition is 78.8 ± 1.9%.

In the case of `COc1ccc(Cn2nnc3ccc4sc(C)cc4c32)cc1` [Compound 10, 1-(4-methoxybenzyl)-7-methyl-1H-thieno[3′,2′:3,4]benzo[1,2-d][1–3]triazole], the IC50 on BChE turned out to be 99.7 µM; in series [2] it was 19.2 µM; against AChE, 66.6 µM. Also, on BChE (read-out: BChE % Inhibition), the inhibition at 350 µM came out at 65.2 ± 0.3%. Further, the inhibition against AChE amounted to 83.6 ± 3.7%.

For the compound `Cc1cc2c(ccc3nnn(Cc4cccs4)c32)s1` [Compound 11, 7-methyl-1-(thiophen-2-ylmethyl)-1H-thieno[3′,2′:3,4]benzo[1,2-d][1–3]triazole], the IC50 turned out to be 123 µM at BChE, 38.7 µM in series [2] and 218 µM against AChE. Moreover, the inhibition at 350 µM on BChE (read-out: BChE % Inhibition) is 72.3 ± 5.6%. This compound came in with an inhibition at AChE of 71.3 ± 0.3%.

Take `Cc1cc2c(ccc3nnn(Cc4ccco4)c32)s1` [Compound 12, 1-(furan-2-ylmethyl)-7-methyl-1H-thieno[3′,2′:3,4]benzo[1,2-d][1–3]triazole]: the inhibition at 350 µM at BChE (read-out: BChE % Inhibition) was 46.1%. Moreover, in series [2], the IC50 was determined as 40.6 µM. Besides, the inhibition on AChE turned out to be 41.8 ± 1%.

For the compound `C=CCCCn1nnc2ccc3sccc3c21` [Compound 13, 1-(pent-4-en-1-yl)-1H-thieno[3′,2′:3,4]benzo[1,2-d][1–3]triazole], the IC50 at BChE is 40.7 µM; in series [2], 21.3 µM. Besides, the “selectivity BChE over AChE” value on BChE (from IC50 values of Table 2) is “selective inhibition for BChE”. In addition, the inhibition at 250 µM is 86.5 ± 5% on BChE (read-out: BChE % Inhibition) and 46.4 ± 2.5% against AChE (at maximal concentration tested 250 μM).

`FC(F)(F)c1ccc(Cn2nnc3ccc4sccc4c32)cc1` [Compound 19]: the IC50 in series [2] was found to be 10.2 µM. For the same compound, the entries for the “cell viability” value with PBMCs and in the series on PBMCs (setting [3]) were 10.2 ** and “cell viability reduction”, respectively.

As to `FC(F)(F)Oc1ccc(Cn2nnc3ccc4sccc4c32)cc1` [Compound 20], in series [2], the IC50 is 8.9 µM. The cell viability entry in the series on PBMCs (setting [3]) is reported as “cell viability reduction”.

As to `FC(F)(F)c1ccc(Cn2nnc3c2-c2ccsc2CC3)cc1` [Compound 26], in series [2], the IC50 came to 9.4 µM. Also, the cell viability result with PBMCs (setting [3]) is on record as “cell viability reduction”.
